# Assay results taken from paper PMC7083880 (Nature Communications, 2020).
# pEC50: −log10 of the molar value. Values joined by “and” are separate entries in the source; they are usually repeats but may differ in a detail not shown here. Equal values may be shown once.
# Columns and labels:
# [1] = target: T1, FTSJ1 (Homo sapiens, UniProt Q9UET6); test: UGA readthrough luciferase assay with FTSJ1 overexpression; assay type: cell-based
# T1 construct: host or cells: HeLa
# T1 sequence (Q9UET6 1-329): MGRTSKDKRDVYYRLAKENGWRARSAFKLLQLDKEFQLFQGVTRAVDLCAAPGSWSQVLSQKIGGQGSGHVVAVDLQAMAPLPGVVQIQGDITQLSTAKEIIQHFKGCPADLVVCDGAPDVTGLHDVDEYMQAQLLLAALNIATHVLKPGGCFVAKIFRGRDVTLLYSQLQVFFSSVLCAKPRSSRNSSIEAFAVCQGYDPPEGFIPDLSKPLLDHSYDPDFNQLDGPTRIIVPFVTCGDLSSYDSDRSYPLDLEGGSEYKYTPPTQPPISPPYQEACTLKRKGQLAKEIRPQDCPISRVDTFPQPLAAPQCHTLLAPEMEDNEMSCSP
# Source text: Firefly luciferase from HEK293FT cells transfected with the Fluc-int-UGA construct was immunoprecipitated and digested with trypsin. The MS/MS spectrum of the peptide containing the PTC position and the sequence determination are shown. The upper red and blue sequences indicate the amino acids validated, respectively, by detection of Nter and Cter peptide fragments (b and y ion series). Peptide fragments y6 and y7 clearly identify tryptophan (W) at the PTC position. The black peaks correspond to non-attributed mass-to-charge ratio (m/z) values. […] Readthrough efficiency was determined by measuring luciferase activity in HeLa cells co-transfected with the firefly luciferase construct described in Fig. 1b and with increasing amounts of an expression vector for either FTSJ1 or CTU1 (0.5, 1, or 2 µg). The empty expression vector (E.v.) was used as control. […] The experiment was performed twice and the results of both experiments (Exp1 and Exp2) are shown. c Western blot analysis of FTSJ1 and CTU1. d 2′-O-methylation analysis of tRNA^Trp, tRNA^SER, and tRNA^GLN by RiboMethSeq. […] A molecular weight marker is indicated to the left of each gel. p-values (p) were calculated using Student’s t-test. Source data are provided as a Source Data file.
# Among the enzymes modifying tRNAs liable to recognize a stop codon by extended wobbling, human FTSJ1 (TRM7 in yeast) exclusively modifies tRNAs involved in UGA readthrough. In addition to other tRNA targets, FTSJ1 methylates the cytosine at position 34 of tRNA^Trp. Inhibition of this modification could increase the capacity of tRNA^Trp to misdecode and recognize the UGA stop codon. […] FTSJ1 and CTU1 overexpression were assessed by western-blot analysis (Fig. 5c).
# [2] = system: firefly luciferase (Fluc) gene with UGA nonsense codon at position 109 in HeLa cells; test: Firefly luciferase readthrough assay, UGA PTC construct; assay type: cell-based, human; conditions: for Luciferase activity, UGA PTC: G418 1mg/ml
# Source text: To identify the compounds responsible for this activity, a semi-preparative HPLC fractionation protocol was used. […] (Fig. 1b). DMSO and G418 were used, respectively, as a negative and a positive control.
# The value of each luciferase measurement is presented in the Source Data File. All data shown in c, d are representative of two independent experiments. Source data are provided as a Source Data file.
# HeLa cells were transfected with the FLuc-int-UGA construct using lipofectamine 3000 (Life technologies) according to the manufacturer’s recommendations. […] Steadylite plus luciferase substrate (Perkin Elmer, Waltham, MA, USA) was then added to each well before measuring the visible light from each well for 10 s with a Tristar luminometer (Berthold technologies, Versailles, France). The plate was read twice and the reported values are averages of the two reads.
smiles,measurement,setting,value
"CN[C@@H]1[C@@H](O)[C@@H](O[C@@H]2[C@@H](O)[C@H](O[C@H]3O[C@H]([C@@H](C)O)[C@@H](O)[C@H](O)[C@H]3N)[C@@H](N)C[C@H]2N)OC[C@]1(C)O [G418, reference compound]","luciferase activity, average","[1]; 0.5µg FTSJ1, 25µM",2984.12
same,"luciferase activity, exp1","[1]; 0.5µg FTSJ1, 25µM",2303.5
same,"luciferase activity, exp1*1,5","[1]; 0.5µg FTSJ1, 25µM",3455.25
same,"luciferase activity, exp2","[1]; 0.5µg FTSJ1, 25µM",2513
same,"luciferase activity, average","[1]; 0.5µg FTSJ1, 600µM",3518
same,"luciferase activity, exp1","[1]; 0.5µg FTSJ1, 600µM",2352
same,"luciferase activity, exp1*1,5","[1]; 0.5µg FTSJ1, 600µM",3528
same,"luciferase activity, exp2","[1]; 0.5µg FTSJ1, 600µM",3508
same,"luciferase activity, average","[1]; 1µg FTSJ1, 25µM",2661.5
same,"luciferase activity, exp1","[1]; 1µg FTSJ1, 25µM",1562
same,"luciferase activity, exp1*1,5","[1]; 1µg FTSJ1, 25µM",2343
same,"luciferase activity, exp2","[1]; 1µg FTSJ1, 25µM",2980
same,"luciferase activity, average","[1]; 1µg FTSJ1, 600µM",3066.25
same,"luciferase activity, exp1","[1]; 1µg FTSJ1, 600µM",1933
same,"luciferase activity, exp1*1,5","[1]; 1µg FTSJ1, 600µM",2899.5
same,"luciferase activity, exp2","[1]; 1µg FTSJ1, 600µM",3233
same,"luciferase activity, average","[1]; 2µg FTSJ1, 25µM",2020.12
same,"luciferase activity, exp1","[1]; 2µg FTSJ1, 25µM",1256.5
same,"luciferase activity, exp1*1,5","[1]; 2µg FTSJ1, 25µM",1884.75
same,"luciferase activity, exp2","[1]; 2µg FTSJ1, 25µM",2155.5
same,"luciferase activity, average","[1]; 2µg FTSJ1, 600µM",2062.5
same,"luciferase activity, exp1","[1]; 2µg FTSJ1, 600µM",1540
same,"luciferase activity, exp1*1,5","[1]; 2µg FTSJ1, 600µM",2310
same,"luciferase activity, exp2","[1]; 2µg FTSJ1, 600µM",1815
same,"Luciferase activity, UGA PTC, dose response","[2]; 0.39µM, Exp. 1",701.361
same,"Luciferase activity, UGA PTC, dose response","[2]; 0.39µM, Exp. 2",678.75
same,"Luciferase activity, UGA PTC, dose response","[2]; 0.39µM, average",690±16 and 690.055
same,"Luciferase activity, UGA PTC, dose response","[2]; 0.78µM, Exp. 1",783.19
same,"Luciferase activity, UGA PTC, dose response","[2]; 0.78µM, Exp. 2",761.5
same,"Luciferase activity, UGA PTC, dose response","[2]; 0.78µM, average",772±15 and 772.345
same,"Luciferase activity, UGA PTC, dose response","[2]; 1.56µM, Exp. 1",853.418
same,"Luciferase activity, UGA PTC, dose response","[2]; 1.56µM, Exp. 2",829
same,"Luciferase activity, UGA PTC, dose response","[2]; 1.56µM, average",841±17 and 841.209
same,"Luciferase activity, UGA PTC, dose response","[2]; 6.25µM, Exp. 1",1017.65
same,"Luciferase activity, UGA PTC, dose response","[2]; 6.25µM, Exp. 2",990.5
same,"Luciferase activity, UGA PTC, dose response","[2]; 6.25µM, average",1004±19 and 1004.07
same,"Luciferase activity, UGA PTC, dose response","[2]; 25µM, Exp. 1",1013.6
same,"Luciferase activity, UGA PTC, dose response","[2]; 25µM, Exp. 2",986
same,"Luciferase activity, UGA PTC, dose response","[2]; 25µM, average",1000±19 and 999.799
same,"Luciferase activity, UGA PTC, dose response","[2]; 100µM, Exp. 1",1134.07
same,"Luciferase activity, UGA PTC, dose response","[2]; 100µM, Exp. 2",1106
same,"Luciferase activity, UGA PTC, dose response","[2]; 100µM, average",1120±20 and 1120.03
same,"Luciferase activity, UGA PTC, dose response","[2]; 300µM, Exp. 1",1723.63
same,"Luciferase activity, UGA PTC, dose response","[2]; 300µM, Exp. 2",1679.5
same,Increase in luciferase activity relative to background level,"[2]; 300 µM, UGA",about twice the background level
same,"Luciferase activity, UGA PTC, dose response","[2]; 300µM, average",1702±31 and 1701.56
same,"Luciferase activity, UGA PTC, dose response","[2]; 600µM, Exp. 1",1231.27
same,"Luciferase activity, UGA PTC, dose response","[2]; 600µM, Exp. 2",1202
same,"Luciferase activity, UGA PTC, dose response","[2]; 600µM, average",1217±21 and 1216.63
same,pEC50,"[2]; Fig. 1D, authors' reply in peer review file, removed from final text",~4.00
same,"Concentration of maximal efficacy, UGA readthrough (luciferase)","[2]; Fig. 1D, peer review file",300 µM
same,"Correction of the UGA nonsense mutation (luciferase activity), in words",[2]; Fig. 1c,corrected the UGA more efficiently than the UAG nonsense mutation
same,"Luciferase activity, UGA PTC",[2]; average of 2 experiments,8466.25±478 and 8466.25
same,"Luciferase activity, UGA PTC",[2]; experiment 1,8804.5
same,"Luciferase activity, UGA PTC",[2]; experiment 2,8128
